The source made the active and inactive calls. Rule as the data show it, for most assays here: active = EC50 of 10 µM or less and inactive = more.
What was measured:
[1] = molecular target: Kappa-type opioid receptor (Homo sapiens, UniProt P41145); assay: SAR analysis of small molecule agonists of the kappa opioid receptor via a luminescent beta-arrestin assay - Set 3. [Related pubchem assays (depositor defined):AID1777, AID1785, AID1786, AID1966, AID2133, AID2136, AID2284, AID2500]; format: functional
Sequence of Kappa-type opioid receptor (P41145 whole entry): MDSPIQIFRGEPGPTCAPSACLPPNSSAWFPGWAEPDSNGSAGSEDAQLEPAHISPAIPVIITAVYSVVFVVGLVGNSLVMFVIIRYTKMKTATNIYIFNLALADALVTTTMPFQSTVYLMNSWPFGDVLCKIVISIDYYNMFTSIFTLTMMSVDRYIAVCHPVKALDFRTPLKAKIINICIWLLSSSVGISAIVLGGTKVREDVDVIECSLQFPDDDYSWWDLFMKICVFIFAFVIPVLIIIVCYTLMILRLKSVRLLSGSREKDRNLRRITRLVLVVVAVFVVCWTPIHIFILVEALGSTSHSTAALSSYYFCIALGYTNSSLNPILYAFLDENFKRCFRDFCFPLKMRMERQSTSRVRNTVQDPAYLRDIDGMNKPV

[2] = molecular target: Sphingosine 1-phosphate receptor 4 (Homo sapiens, UniProt O95977); assay: Fluorescence dose response cell-based high throughput screening assay for agonists of the Sphingosine 1-Phosphate Receptor 4 (S1P4). [Related pubchem assays: 1509 (Primary screen.), 1523 (Confirmation screen in triplicates.)]; format: functional
Sequence of Sphingosine 1-phosphate receptor 4 (O95977 whole entry): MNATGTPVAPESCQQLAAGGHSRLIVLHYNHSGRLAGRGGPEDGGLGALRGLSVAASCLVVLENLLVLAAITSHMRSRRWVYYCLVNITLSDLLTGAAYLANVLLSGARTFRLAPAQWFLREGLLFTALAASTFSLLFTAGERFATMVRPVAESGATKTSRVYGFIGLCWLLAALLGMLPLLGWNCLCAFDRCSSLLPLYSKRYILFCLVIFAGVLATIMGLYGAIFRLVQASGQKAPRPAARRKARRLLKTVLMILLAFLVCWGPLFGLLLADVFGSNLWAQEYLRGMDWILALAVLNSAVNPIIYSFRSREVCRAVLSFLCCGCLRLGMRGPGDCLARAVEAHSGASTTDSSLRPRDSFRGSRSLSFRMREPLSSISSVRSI

[3] = molecular target: Sphingosine 1-phosphate receptor 1 (Homo sapiens, UniProt P21453); assay: Fluorescence-based counterscreen assay for S1P4 agonists: Cell-based dose response high throughput screening assay to identify agonists of the Sphingosine 1-Phosphate Receptor 1 (S1P1). [Related pubchem assays (depositor defined):AID1509, AID1523, AID1801, AID463107, AID463118, AID463119, AID463122, AID463123, AID463129, AID463225, AID504400, AID504460]; format: functional
Sequence of Sphingosine 1-phosphate receptor 1 (P21453 whole entry): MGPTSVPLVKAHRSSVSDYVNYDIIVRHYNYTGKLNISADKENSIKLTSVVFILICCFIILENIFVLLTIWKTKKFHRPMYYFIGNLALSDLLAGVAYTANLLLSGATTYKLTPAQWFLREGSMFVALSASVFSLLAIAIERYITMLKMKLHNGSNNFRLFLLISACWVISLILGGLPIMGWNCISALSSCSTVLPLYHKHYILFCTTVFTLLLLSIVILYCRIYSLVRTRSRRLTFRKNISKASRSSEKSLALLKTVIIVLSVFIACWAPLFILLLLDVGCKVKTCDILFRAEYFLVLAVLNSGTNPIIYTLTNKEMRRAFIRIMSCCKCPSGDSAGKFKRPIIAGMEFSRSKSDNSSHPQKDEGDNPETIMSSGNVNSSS

[4] = molecular target: T1, E3 ubiquitin-protein ligase XIAP (Homo sapiens, UniProt P98170); assay: small molecules displacing peptide from XIAP – biochemical, IAP family, fluorescence polarization (AID 1018); format: functional
T1 sequence (P98170 whole entry): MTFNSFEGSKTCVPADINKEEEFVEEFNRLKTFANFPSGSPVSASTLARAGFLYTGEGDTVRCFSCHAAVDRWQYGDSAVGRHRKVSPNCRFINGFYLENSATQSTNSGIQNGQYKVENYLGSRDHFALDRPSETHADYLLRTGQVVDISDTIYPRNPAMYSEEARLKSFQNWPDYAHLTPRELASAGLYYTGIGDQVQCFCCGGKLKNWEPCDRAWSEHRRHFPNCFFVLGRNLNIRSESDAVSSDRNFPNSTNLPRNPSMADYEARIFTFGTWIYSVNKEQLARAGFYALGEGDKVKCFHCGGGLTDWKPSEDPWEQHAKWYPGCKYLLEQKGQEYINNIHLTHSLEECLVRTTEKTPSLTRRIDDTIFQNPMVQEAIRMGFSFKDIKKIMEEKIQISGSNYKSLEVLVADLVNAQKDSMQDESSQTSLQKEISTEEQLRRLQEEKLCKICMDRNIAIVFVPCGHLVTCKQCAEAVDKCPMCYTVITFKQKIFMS

[5] = molecular target: T1, E3 ubiquitin-protein ligase XIAP; assay: Counter Screen using XIAP-Bir3 for Chemical Antagonists of Bir1/2 domains of IAP-family anti-apoptotic proteins. [Related pubchem assays (depositor defined):AID1018, AID1449, AID1514, AID1638, AID1749, AID1750, AID488957, AID488963]

## COc1ccc(Cn2c(SCc3ccc(Br)cc3)nnc2-c2ccccn2)cc1
[1]
  EC50: > 20 µM (inactive)

## CCNC(=O)NC(=O)C(C)OC(=O)c1c(C)nn(Cc2ccccc2)c1Cl (stereo not given)
[2]
  EC50: 49.8 µM (not active)
[3]
  EC50: > 49.8 µM (inactive)

## CCOc1ccc(NC(=S)NCCCN2CCN(C3CCCCC3)CC2)cc1
[4]
  IC50: > 100 µM (not active)
[5]
  IC50: > 100 µM (inactive)
